Common to all, as to type: cell-based
The target of one assay is AXL (Homo sapiens (Human), UniProt P30530). Put plainly: AXL autophosphorylation ELISA in A-172 cells. The note with it: cellular, Gas6-stimulated, phospho-AXL ELISA. The procedure:
A-172 glioblastoma cells (ATCC #CRL-1620) were seeded at 2.5×10^5 cells/well onto 24-well plates (Greiner #662165), in DMEM (Thermo Fisher #11995-040) containing 10% FBS (Thermo Fisher #26140-079), 1% MEM NEAA (Thermo Fisher #11140-050), 1% GlutaMax (Thermo Fisher #35050-061), and 1% Penicillin Streptomycin (Thermo Fisher #15140-122). A-172 cells were incubated at 37° C., 5% CO2 for 24 h and then starved for 24 h in serum-free medium. Test compounds were serially diluted to produce an 8-point dose curve in fresh serum-free medium to a final concentration of 0.3% DMSO (vehicle) and added to the cells and incubated for 1 h. Cells were then stimulated with 1 μg/mL recombinant human Gas6 (R&D Systems #885-GSB-500) for 15 min, washed with cold PBS, and immediately lysed with 150 μL of cold IX lysis buffer [20 mM Tris, 137 mM sodium chloride, 2 mM EDTA, 10% glycerol, 1% NP-40 alternative, 1 mM activated sodium orthovanadate, 1 mM PefaBloc SC (Sigma-Aldrich #11429868001), protease/phosphatase inhibitor tablet (Thermo Fisher #A32959)]. Lysates were collected and 100 μL/well added into the human phospho-AXL Duo Set IC ELISA (R&D Systems #DYC2228-2). Assay was performed according to manufacturer's instructions and sample phospho-AXL concentrations were extrapolated using human phospho-AXL control (R&D Systems #841645) as a standard. Positive control wells (100% activity) contained Gas6-stimulated, DMSO-treated cell lysates. Negative control wells (0% activity) contained Gas6-stimulated, reference inhibitor-treated cell lysates. IC50 values were calculated by nonlinear regression analysis using a 4-parameter logistic curve fit in ActivityBase XL (IDBS).

The target in the next assay is Mer (Homo sapiens (Human), UniProt Q12866). The assay can be described thus: Mer autophosphorylation ELISA in transient transfected 293A cells. The note with it: cellular, MERTK-transfected 293A cells, phospho-Mer ELISA. The procedure:
293A cells (Thermo Fisher #R70507) were seeded at 1.5×10^6 cells/well onto 100 mm dish (Greiner #664169), in DMEM (Thermo Fisher #11995-040) containing 10% FBS (Thermo Fisher #26140-079), 1% MEM NEAA (Thermo Fisher #11140-050), 1% GlutaMax (Thermo Fisher #35050-061), and 1% Penicillin Streptomycin (Thermo Fisher #15140-122). 293A cells were incubated at 37° C., 5% CO2 for 24 h and then transfected with 6 μg MERTK DNA (Genecopoeia #EX-Z8208-M02) using TransIT LT1 transfection reagent (Mirus-Bio #MIR2305). After 24 h incubation, the transfected 293A cells were seeded at 1×10^5 cells/well onto 96-well plates (Corning #3904) in DMEM growth medium overnight. Test compounds were serially diluted to produce an 8-point dose curve in fresh serum-free medium to a final concentration of 0.3% DMSO (vehicle) and added to the cells and incubated for 1 h. Cells were then immediately lysed with 150 μL of cold IX lysis buffer [20 mM Tris, 137 mM sodium chloride, 2 mM EDTA, 10% glycerol, 1% NP-40 alternative, 1 mM activated sodium orthovanadate, 1 mM PefaBloc SC (Sigma-Aldrich #11429868001), protease/phosphatase inhibitor tablet (Thermo Fisher #A32959)]. Lysates were clarified by centrifugation and 50 μL/well added into the human phospho-Mer DuoSet IC ELISA (R&D Systems #DYC2579-2). Assay was performed according to manufacturer's instructions and sample phospho-Mer concentrations were extrapolated using human phospho-Mer control (R&D Systems #841793) as a standard. Positive control wells (100% activity) contained DMSO-treated cell lysates. Negative control wells (0% activity) contained reference inhibitor-treated cell lysates. IC50 values were calculated by nonlinear regression analysis using a 4-parameter logistic curve fit in ActivityBase XE (IDBS).
A general note: ELISA stands for enzyme-linked immunosorbent assay.

A further assay concerns the target Met (Homo sapiens (Human), UniProt P08581). The assay can be described thus: Met autophosphorylation ELISA in PC-3 cells. The note with it: cellular, HGF-stimulated, phospho-Met ELISA, read-out: c-Met IC50. How it is done:
PC-3 prostate cancer cells (ATCC #CRL-1435) were seeded at 4×10^4 cells/well onto 24-well plates (Greiner #662165), in DMEM (Thermo Fisher #11995-040) containing 10% FBS (Thermo Fisher #26140-079), 1% MEM NEAA (Thermo Fisher #11140-050), 1% GlutaMax (Thermo Fisher #35050-061), and 1% Penicillin Streptomycin (Thermo Fisher #15140-122). PC-3 cells were incubated at 37° C., 5% CO2 for 24 h and then starved for 3 h in serum-free medium. Test compounds were serially diluted to produce an 8-point dose curve in fresh serum-free medium to a final concentration of 0.3% DMSO (vehicle) and added to the cells and incubated for 1 h. Cells were then stimulated with 100 ng/mL recombinant human HGF (R&D Systems #294-HG-250) for 10 min, washed with cold PBS, and immediately lysed with 130 μL of cold IX lysis buffer [20 mM Tris, 137 mM sodium chloride, 2 mM EDTA, 10% glycerol, 1% NP-40 alternative, 1 mM activated sodium orthovanadate, 1 mM PefaBloc SC (Sigma-Aldrich #11429868001), protease/phosphatase inhibitor tablet (Thermo Fisher #A32959)]. Lysates were clarified by centrifugation and 100 μL/well added into the PathScan phospho-Met (panTyr) Sandwich ELISA (Cell Signaling Technology #7333). Assay was performed according to manufacturer's instructions. Positive control wells (100% activity) contained HGF-stimulated, DMSO-treated cell lysates. Negative control wells (0% activity) contained HGF-stimulated, reference inhibitor-treated cell lysates. IC50 values were calculated by nonlinear regression analysis using a 4-parameter logistic curve fit in ActivityBase XL (IDBS).

The target of a further assay is KDR (Homo sapiens (Human), UniProt P35968). The assay can be described thus: KDR autophosphorylation ELISA in HUVEC cells. The note with it: cellular, VEGF165-stimulated, phospho-KDR ELISA. The procedure: Human umbilical vein endothelial cells or HUVEC (Lonza #C2519A) were seeded at 2×10^4 cells/well onto 96-well plates (Corning #3904), in EGM-2 growth medium (Lonza #CC-3162) containing 1% Penicillin Streptomycin (Thermo Fisher #15140-122). HUVEC cells were incubated at 37° C., 5% CO2 for 24 h and then starved for 24 h in serum-free EBM-2 basal medium (Lonza #CC-3156) containing 1% Penicillin Streptomycin. Test compounds were serially diluted to produce an 8-point dose curve in fresh serum-free medium to a final concentration of 0.3% DMSO (vehicle) and added to the cells and incubated for 1 h. Cells were then stimulated with 100 ng/mL recombinant human VEGF165 (R&D Systems #293-VE-500) for 5 min, washed with cold PBS, and immediately lysed with 130 μL of cold 1× lysis buffer [20 mM Tris, 137 mM sodium chloride, 2 mM EDTA, 10% glycerol, 1% NP-40 alternative, 1 mM activated sodium orthovanadate, 1 mM PefaBloc SC (Sigma-Aldrich #11429868001), protease/phosphatase inhibitor tablet (Thermo Fisher #A32959)]. Lysates were collected and 100 μL/well added into the human phospho-KDR Duo Set IC ELISA (R&D Systems #DYC 1766-2). Assay was performed according to manufacturer's instructions and sample phospho-KDR concentrations were extrapolated using human phospho-KDR control (R&D Systems #841421) as a standard. Positive control wells (100% activity) contained VEGF165-stimulated, DMSO-treated cell lysates. Negative control wells (0% activity) contained non-stimulated cell lysates. IC50 values were calculated by nonlinear regression analysis using a 4-parameter logistic curve fit in ActivityBase XE (IDBS).

pIC50: −log10 of the molar value.

What is called pIC50 is the negative decadic logarithm of the IC50, by convention in mol/L.

Sequence of KDR (P35968 20-1356): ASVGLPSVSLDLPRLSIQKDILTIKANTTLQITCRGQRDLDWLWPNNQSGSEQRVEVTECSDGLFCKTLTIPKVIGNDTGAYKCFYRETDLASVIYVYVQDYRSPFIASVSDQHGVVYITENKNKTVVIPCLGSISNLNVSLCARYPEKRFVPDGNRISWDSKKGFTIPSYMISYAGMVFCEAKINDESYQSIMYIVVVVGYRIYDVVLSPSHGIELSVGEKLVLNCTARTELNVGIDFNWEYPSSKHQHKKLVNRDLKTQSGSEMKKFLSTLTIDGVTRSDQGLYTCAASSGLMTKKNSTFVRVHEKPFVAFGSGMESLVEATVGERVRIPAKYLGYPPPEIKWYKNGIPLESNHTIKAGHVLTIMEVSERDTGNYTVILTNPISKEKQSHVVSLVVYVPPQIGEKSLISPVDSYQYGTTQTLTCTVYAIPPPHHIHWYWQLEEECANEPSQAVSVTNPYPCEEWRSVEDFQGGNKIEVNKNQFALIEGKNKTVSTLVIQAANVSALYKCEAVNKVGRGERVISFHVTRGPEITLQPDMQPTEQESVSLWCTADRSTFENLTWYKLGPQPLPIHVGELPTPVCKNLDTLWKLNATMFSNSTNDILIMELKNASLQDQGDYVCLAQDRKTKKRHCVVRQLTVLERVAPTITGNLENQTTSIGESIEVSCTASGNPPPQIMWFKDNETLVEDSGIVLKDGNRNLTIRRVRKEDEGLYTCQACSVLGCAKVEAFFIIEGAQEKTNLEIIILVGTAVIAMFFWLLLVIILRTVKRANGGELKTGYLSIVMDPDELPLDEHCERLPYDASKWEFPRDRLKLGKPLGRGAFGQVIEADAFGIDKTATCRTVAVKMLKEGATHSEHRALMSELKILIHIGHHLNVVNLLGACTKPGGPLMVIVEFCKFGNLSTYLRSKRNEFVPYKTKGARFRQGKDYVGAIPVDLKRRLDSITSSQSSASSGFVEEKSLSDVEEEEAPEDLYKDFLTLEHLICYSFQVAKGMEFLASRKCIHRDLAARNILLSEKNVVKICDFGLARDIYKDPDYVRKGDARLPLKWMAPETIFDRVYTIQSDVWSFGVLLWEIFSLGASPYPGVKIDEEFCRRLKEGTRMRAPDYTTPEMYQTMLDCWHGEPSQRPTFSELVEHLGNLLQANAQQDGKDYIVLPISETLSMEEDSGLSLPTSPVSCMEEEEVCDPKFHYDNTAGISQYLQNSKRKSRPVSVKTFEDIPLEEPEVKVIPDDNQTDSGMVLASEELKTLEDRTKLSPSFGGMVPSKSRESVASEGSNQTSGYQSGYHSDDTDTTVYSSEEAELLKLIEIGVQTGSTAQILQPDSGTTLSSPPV
Sequence of Met (P08581 25-1390): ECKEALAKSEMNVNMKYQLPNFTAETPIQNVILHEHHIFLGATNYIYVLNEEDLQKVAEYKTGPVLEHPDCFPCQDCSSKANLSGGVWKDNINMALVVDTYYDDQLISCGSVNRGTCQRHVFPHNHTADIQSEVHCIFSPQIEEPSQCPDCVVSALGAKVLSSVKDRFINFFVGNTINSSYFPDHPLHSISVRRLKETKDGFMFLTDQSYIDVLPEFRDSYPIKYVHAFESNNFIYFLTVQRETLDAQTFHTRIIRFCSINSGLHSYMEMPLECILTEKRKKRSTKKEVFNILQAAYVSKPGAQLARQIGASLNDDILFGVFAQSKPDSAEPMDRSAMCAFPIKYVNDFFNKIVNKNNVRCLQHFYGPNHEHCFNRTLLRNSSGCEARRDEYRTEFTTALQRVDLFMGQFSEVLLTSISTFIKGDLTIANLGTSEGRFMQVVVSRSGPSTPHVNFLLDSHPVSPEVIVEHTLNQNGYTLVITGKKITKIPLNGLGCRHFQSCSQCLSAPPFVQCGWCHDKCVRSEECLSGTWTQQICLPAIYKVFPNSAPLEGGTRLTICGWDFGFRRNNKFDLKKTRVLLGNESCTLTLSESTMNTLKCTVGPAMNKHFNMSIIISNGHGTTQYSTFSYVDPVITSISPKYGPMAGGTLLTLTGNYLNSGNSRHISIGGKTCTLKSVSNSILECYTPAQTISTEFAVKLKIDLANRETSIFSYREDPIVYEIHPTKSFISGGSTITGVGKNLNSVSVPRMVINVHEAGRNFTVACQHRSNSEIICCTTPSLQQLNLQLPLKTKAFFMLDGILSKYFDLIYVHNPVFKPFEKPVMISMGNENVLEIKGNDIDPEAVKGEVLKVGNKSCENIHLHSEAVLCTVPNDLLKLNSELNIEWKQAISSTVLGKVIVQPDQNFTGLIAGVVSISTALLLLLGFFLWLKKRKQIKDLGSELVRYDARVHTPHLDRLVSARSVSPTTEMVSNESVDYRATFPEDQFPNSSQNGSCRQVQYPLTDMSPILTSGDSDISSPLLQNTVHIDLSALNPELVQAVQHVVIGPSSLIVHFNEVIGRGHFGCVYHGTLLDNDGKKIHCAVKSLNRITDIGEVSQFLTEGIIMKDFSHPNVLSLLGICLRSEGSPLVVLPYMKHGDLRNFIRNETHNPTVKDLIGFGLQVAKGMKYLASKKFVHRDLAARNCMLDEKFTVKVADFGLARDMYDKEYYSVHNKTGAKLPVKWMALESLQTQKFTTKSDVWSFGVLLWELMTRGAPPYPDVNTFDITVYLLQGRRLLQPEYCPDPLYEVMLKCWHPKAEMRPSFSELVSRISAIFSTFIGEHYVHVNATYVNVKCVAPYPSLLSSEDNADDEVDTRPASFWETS
Sequence of Mer (Q12866 21-999): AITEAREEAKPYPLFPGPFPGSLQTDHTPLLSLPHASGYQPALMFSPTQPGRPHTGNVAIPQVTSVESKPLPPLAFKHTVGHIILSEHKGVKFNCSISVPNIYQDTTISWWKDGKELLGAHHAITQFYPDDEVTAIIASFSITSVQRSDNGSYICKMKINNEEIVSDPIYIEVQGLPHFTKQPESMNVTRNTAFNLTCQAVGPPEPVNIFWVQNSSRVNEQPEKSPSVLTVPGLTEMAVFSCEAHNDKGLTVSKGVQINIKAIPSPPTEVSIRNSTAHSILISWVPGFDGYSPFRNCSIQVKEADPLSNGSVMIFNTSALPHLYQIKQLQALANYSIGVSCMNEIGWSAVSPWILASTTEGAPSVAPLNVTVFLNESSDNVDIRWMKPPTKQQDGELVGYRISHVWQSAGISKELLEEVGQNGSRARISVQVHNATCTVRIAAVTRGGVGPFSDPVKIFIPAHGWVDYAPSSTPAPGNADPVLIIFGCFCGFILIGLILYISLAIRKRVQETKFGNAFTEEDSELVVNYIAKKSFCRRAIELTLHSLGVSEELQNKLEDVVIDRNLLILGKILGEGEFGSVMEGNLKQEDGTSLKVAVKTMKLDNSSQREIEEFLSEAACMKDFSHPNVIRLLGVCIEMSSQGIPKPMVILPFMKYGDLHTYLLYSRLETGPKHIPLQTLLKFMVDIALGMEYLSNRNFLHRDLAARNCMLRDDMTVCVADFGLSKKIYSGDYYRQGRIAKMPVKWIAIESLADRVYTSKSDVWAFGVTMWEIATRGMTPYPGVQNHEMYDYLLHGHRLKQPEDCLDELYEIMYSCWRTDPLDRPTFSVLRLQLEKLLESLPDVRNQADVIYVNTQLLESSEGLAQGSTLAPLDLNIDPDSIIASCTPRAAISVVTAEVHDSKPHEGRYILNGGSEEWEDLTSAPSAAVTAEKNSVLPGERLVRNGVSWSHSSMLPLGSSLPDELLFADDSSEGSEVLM
Sequence of AXL (P30530 26-894): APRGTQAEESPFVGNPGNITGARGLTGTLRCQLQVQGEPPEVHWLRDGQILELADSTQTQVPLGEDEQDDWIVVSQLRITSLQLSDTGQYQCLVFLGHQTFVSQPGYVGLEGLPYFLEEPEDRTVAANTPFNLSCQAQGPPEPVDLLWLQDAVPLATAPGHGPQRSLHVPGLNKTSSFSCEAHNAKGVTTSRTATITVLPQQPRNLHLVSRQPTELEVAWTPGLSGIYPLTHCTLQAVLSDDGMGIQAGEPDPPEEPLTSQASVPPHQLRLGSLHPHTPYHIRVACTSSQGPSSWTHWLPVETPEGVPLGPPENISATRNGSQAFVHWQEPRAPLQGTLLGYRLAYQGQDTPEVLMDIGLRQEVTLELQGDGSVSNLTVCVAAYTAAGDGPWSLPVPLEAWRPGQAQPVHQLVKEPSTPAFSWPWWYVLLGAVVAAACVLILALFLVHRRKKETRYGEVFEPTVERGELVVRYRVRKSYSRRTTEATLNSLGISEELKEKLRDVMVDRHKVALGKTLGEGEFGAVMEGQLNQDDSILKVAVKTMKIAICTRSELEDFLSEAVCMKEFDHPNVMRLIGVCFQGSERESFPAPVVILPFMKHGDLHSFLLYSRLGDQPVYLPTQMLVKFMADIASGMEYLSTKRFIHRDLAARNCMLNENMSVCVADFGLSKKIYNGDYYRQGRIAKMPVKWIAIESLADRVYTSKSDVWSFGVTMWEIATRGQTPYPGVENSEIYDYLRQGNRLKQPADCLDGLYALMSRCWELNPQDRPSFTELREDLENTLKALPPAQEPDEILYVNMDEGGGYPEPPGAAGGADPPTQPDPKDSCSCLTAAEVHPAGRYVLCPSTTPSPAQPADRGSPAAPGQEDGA

With `COc1cnc2c(Oc3cc(F)c(NC(=O)C4(C(=O)Nc5ccc(F)cc5)CC4)cc3F)ncnc2c1` [Compound 19, 1-N′-[2,5-difluoro-4-(7-methoxypyrido[3,2-d]pyrimidin-4-yl)oxyphenyl]-1-N-(4-fluorophenyl)cyclo-propane-1,1-dicarboxamide], the negative logarithm of the IC50 (pIC50) is 7.00 to 8.00 against AXL, 7.00 to 8.00 on Mer, 7.00 to 8.00 at Met and 6.52 to 7.00 at KDR.

`COc1cc2ncnc(Oc3ccc(NC(=O)C4(C(=O)Nc5ccc(F)cc5)CC4)c(F)c3)c2nc1OC` [Compound 31, 1-N′-[4-(6,7-dimethoxy-pyrido[3,2-d]pyrimidin-4-yl)oxy-2-fluorophenyl]-1-N-(4-fluorophenyl)cyclo-propane-1,1-dicarboxamide]: the pIC50 against AXL is at least 8.00; at Mer, 7.00 to 8.00; at Met it was 7.00 to 8.00; against KDR, 7.00 to 8.00.

`COc1cc2ncnc(Oc3ccc(NC(=O)C4(C(=O)Nc5ccc(F)cc5)CC4)c(F)c3F)c2nc1OC` [Compound 34, 1-N′-[4-(6,7-dimethoxypyrido[3,2-d]pyrimidin-4-yl)oxy-2,3-difluorophenyl]-1-N-(4-fluorophenyl)cyclo-propane-1,1-dicarbox-amide]: the negative logarithm of the IC50 (pIC50) on AXL was at least 8.00; on Mer, at least 8.00; on Met, 7.00 to 8.00; against KDR it was 7.00 to 8.00.

Regarding `COc1cc2ncnc(Oc3cc(F)c(NC(=O)C4(C(=O)Nc5ccc(F)cc5)CC4)cc3F)c2nc1OC` [Compound 35, 1-N′-[4-(6,7-dimethoxypyrido[3,2-d]pyrimidin-4-yl)oxy-2,5-difluorophenyl]-1-N-(4-fluorophenyl)cyclo-propane-1,1-dicarboxamide], the negative-log IC50 (pIC50) is at least 8.00 against AXL, at least 8.00 against Mer, at least 8.00 on Met and 7.00 to 8.00 on KDR.

Take `COc1nc2c(Oc3ccc(NC(=O)C4(C(=O)Nc5ccc(F)cc5)CC4)cc3C)ncnc2cc1OCCCN1CCOCC1` [Compound 68, 1-N-(4-fluorophenyl)-1-N′-[4-[6-methoxy-7-(3-morpholin-4-ylpropoxy)pyrido[3,2-d]pyrimidin-4-yl]oxy-3-methylphenyl]cyclopropane-1,1-dicarboxamide]: the pIC50 against AXL is 7.00 to 8.00; against Mer, 7.00 to 8.00; on Met, 6.52 to 7.00; against KDR, 7.00 to 8.00.

`COc1nc2c(Oc3ccc(NC(=O)C4(C(=O)Nc5ccc(F)cc5)CC4)c(F)c3)ncnc2cc1OCCCN1CCOCC1` [Compound 69, 1-N′-[2-fluoro-4-[6-methoxy-7-(3-morpholin-4-ylpropoxy)pyrido[3,2-d]pyrimidin-4-yl]oxyphenyl]-1-N-(4-fluorophenyl)cyclo-propane-1,1-dicarboxamide]: the negative logarithm of the IC50 (pIC50) was at least 8.00 against AXL, at least 8.00 against Mer, 7.00 to 8.00 at Met and 7.00 to 8.00 at KDR.

Regarding `COc1nc2c(Oc3ccc(NC(=O)C4(C(=O)Nc5ccc(F)cc5)CC4)c(Cl)c3)ncnc2cc1OCCCN1CCOCC1` [Compound 70, 1-N′-[2-chloro-4-[6-methoxy-7-(3-morpholin-4-ylpropoxy)pyrido[3,2-d]pyrimidin-4-yl]oxyphenyl]-1-N-(4-fluorophenyl)cyclo-propane-1,1-dicarboxamide], the negative-log IC50 (pIC50) is 7.00 to 8.00 on AXL, 7.00 to 8.00 against Mer, 6.52 to 7.00 at Met and 6.52 to 7.00 on KDR.

`COc1nc2c(Oc3ccc(NC(=O)C4(C(=O)Nc5ccc(F)cc5)CC4)c(C)c3)ncnc2cc1OCCCN1CCOCC1` [Compound 71, 1-N-(4-fluorophenyl)-1-N′-[4-[6-methoxy-7-(3-morpholin-4-ylpropoxy)pyrido[3,2-d]pyrimidin-4-yl]oxy-2-methylphenyl]cyclopropane-1,1-dicarboxamide]: the pIC50 is 7.00 to 8.00 against AXL, below 6.52 at Mer, 6.52 to 7.00 at Met and 7.00 to 8.00 on KDR.

`COc1nc2c(Oc3cc(F)c(NC(=O)C4(C(=O)Nc5ccc(F)cc5)CC4)cc3F)ncnc2cc1OCCCN1CCOCC1` [Compound 72, 1-N′-[2,5-difluoro-4-[6-methoxy-7-(3-morpholin-4-ylpropoxy)pyrido[3,2-d]pyrimidin-4-yl]oxyphenyl]-1-N-(4-fluorophenyl)cyclo-propane-1,1-dicarboxamide]: the pIC50 against AXL is at least 8.00; against Mer, 7.00 to 8.00; on Met it was 7.00 to 8.00; at KDR it was 7.00 to 8.00.

Consider `COc1nc2c(Oc3ccc(NC(=O)C4(C(=O)Nc5ccc(F)cc5)CC4)c(F)c3F)ncnc2cc1OCCCN1CCOCC1` [Compound 73, 1-N′-[2,3-difluoro-4-[6-methoxy-7-(3-morpholin-4-ylpropoxy)pyrido[3,2-d]pyrimidin-4-yl]oxyphenyl]-1-N-(4-fluoro-phenyl)cyclopropane-1,1-dicarboxamide], for which the pIC50 is at least 8.00 against AXL, at least 8.00 against Mer, 7.00 to 8.00 at Met and at least 8.00 on KDR.

The values are drawn from US11708367B2, “Compounds for the treatment of kinase-dependent disorders” (Exelixis, Inc., priority 2018, dated 2023).
